Reference: patent publication US20090118135A1, “METHODS AND COMPOUNDS FOR REGULATING APOPTOSIS” (The Burnham Institute, priority 2007, published 2009)
“And” between values parts separate entries of the source, which are not always exact repeats. Equal entries are not always repeated. “Also recorded” adds a separate entry of the source. Where a SMILES comes first, the peptide text is derived from it. [ ]: non-standard residue; d: D form. Ahx = NCCCCCC(=O)O

Assays:
GST-Bcl-B [1] = target: T1, GST-Bcl-B (Homo sapiens, UniProt Q9HD36); experiment: biochemical
T1 sequence (Q9HD36 1-182 limits assumed): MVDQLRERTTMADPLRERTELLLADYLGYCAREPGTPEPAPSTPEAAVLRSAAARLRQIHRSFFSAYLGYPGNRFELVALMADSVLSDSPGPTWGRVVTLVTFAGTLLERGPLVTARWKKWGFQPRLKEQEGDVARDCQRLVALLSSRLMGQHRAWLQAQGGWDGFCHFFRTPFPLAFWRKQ

GST-Bcl-2 = GST-Bcl-2 (Homo sapiens, UniProt P10415); experiment: Bcl-2/FITC-TR3 fluorescence polarization competition assay (PBS + Tween-20); details: for Bcl-2 H Coefficient: Hill coefficient of Bcl-2 dose-response curve; for displacement of FITC-TR3-r8 from Bcl-2: result in words
Chain of GST-Bcl-2 (P10415 1-218 limits assumed): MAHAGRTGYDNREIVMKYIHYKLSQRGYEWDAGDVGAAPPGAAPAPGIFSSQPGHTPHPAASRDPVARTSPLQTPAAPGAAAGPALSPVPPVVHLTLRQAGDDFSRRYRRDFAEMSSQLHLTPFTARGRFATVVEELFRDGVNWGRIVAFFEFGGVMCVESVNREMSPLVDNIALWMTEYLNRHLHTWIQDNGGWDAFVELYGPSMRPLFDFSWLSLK

GST-Bcl-B [2] = target: T1, GST-Bcl-B; experiment: Bcl-B/FITC-TR3-r8 fluorescence polarization competition (displacement) assay, HTS and dose-response; details: for Bcl-B H Coefficient: Hill coefficient of Bcl-B dose-response curve

| IC50 (GST-Bcl-B [1]) | Bcl-2 H Coefficient (GST-Bcl-2) | Bcl-B H Coefficient (GST-Bcl-B [2]) | EC50 (GST-Bcl-B [2]) | displacement of FITC-TR3-r8 from GST-Bcl-B (GST-Bcl-B [2]; result in words) | SMILES | displacement of FITC-TR3-r8 from Bcl-2 (GST-Bcl-2) |
| --- | --- | --- | --- | --- | --- | --- |
| 0.542 µM | 0.6186 | 1.032 |  |  | Cc1ccc(C)n1-c1cc(C(=O)O)cc(C(=O)O)c1 [Compound 5950689] |  |
| 17.9 µM | 1.078 | 0.9962 |  |  | O=C(COc1ccc(Cl)cc1Cl)Nc1nnc(-c2ccco2)[nH]1 [Compound 5632817] |  |
|  |  |  |  |  | CN(C)CC[C@H](CSc1ccccc1)Nc1ccc(S(=O)(=O)NC(=O)c2ccc(N3CCN(Cc4ccccc4-c4ccc(Cl)cc4)CC3)cc2)cc1[N+](=O)[O-] [ABT-737, reference compound] | failed to block FITC-TR3-9-r8 peptide binding to Bcl-2; also recorded: did not effectively displace FITC-TR3-r8 from Bcl-2 |
| 3.69 µM | 1.241 | 1.182 |  |  | Oc1ccc(Nc2nc(-c3ccccn3)cs2)cc1 [Compound 5662807] |  |
| 13.3 µM |  | 1.428 |  |  | CCOc1ccc(/C=C(/NC(=O)c2ccc(C)cc2)C(=O)NCCO)cc1 [Compound 5650022] |  |
| 1.2 µM |  | 1.829 |  |  | O=C(O)C1Nc2c(cccc2[N+](=O)[O-])C2C=CCC12 (stereo not shown) [Compound 5665283] |  |
| 4.95 µM |  | 1.761 |  |  | O=C(O)C1Nc2c(C(=O)N3CCCC3)cccc2C2C=CCC12 (stereo not shown) [Compound 5947449] |  |
| 5.7 µM |  | 3.214 |  |  | O=C1C=CC(=O)C(/C(=C/NCc2ccccc2)[N+](=O)[O-])=C1 [Compound 5261378] |  |
| 7.43 µM |  | 1.332 |  |  | CCSc1nc(NN)c2c3c(sc2n1)CN(C)CC3 [Compound 5683054] |  |
| 1.05 µM |  | 2.075 |  |  | Nc1ccc(S(=O)(=O)O)c2cccc(O)c12 [Compound 5265894] |  |
| 4.13 µM |  | 2.774 |  |  | O=C(O)C1C2CC=CC2c2cc(Oc3ccccc3)cc3c2N1CC1CC=CC31 (stereo not shown) [Compound 5840196] |  |
| 20.7 µM |  | 1.406 |  |  | Cc1cc(I)c2c(c1)C1C=CCC1C(C(=O)O)N2 (stereo not shown) [Compound 6048134] |  |
| 17.4 µM |  | 1.821 |  |  | COC(=O)C1=C(C)N(C)C(=O)NC1c1cc2c(cc1[N+](=O)[O-])OCO2 (stereo not shown) [Compound 5607960] |  |
| 1.75 µM |  | 1.336 |  |  | O=C(O)c1ccc2c(c1)C1C=CCC1C(c1cccc([N+](=O)[O-])c1)N2 (stereo not shown) [Compound 5475298] |  |
| 12.9 µM |  | 2.531 |  |  | CN1CCN(CN2C(=O)/C(=N\NC(=O)CSc3nc4ccccc4s3)c3ccccc32)CC1 [Compound 6062681] |  |
| 5.38 µM |  | 1.878 |  |  | Cc1cc(C)nc(NC(=N)Nc2ccc(N)cc2)n1 [Compound 5805360] |  |
| 33.4 µM |  | 1.772 |  |  | O=C1NN(c2ccc(F)c(Cl)c2)C(=O)/C1=C\c1ccco1 [Compound 5837788] |  |

| IC50 (GST-Bcl-B [1]) | Bcl-2 H Coefficient (GST-Bcl-2) | Bcl-B H Coefficient (GST-Bcl-B [2]) | EC50 (GST-Bcl-B [2]) | displacement of FITC-TR3-r8 from GST-Bcl-B (GST-Bcl-B [2]; result in words) | SMILES | displacement of FITC-TR3-r8 from Bcl-2 (GST-Bcl-2) |
| --- | --- | --- | --- | --- | --- | --- |
| 9.1 µM and 9.07 µM |  | 0.5836 |  |  | Oc1cccc(/C=N/C2=C(c3ccco3)N=C3C=CC=CC32)c1 (stereo not shown) [Compound 5612880] |  |
| 3.74 µM and 2.89 µM |  | 2.36 |  |  | Nc1n[nH]c2ncc3cc4ccccc4nc3c12 [Compound 6051011] |  |
| 6.24 µM |  | 18.57 |  |  | COc1ccccc1NC(=O)C1=C(C)NC(SCC(=O)c2ccc(Br)cc2)=C(C#N)C1c1ccco1 (stereo not shown) [Compound 5570547] |  |
| 8.04 µM |  | 2.489 |  |  | Cn1c(=O)cc2c3c(c(Nc4ccc(C=O)cc4)ccc31)C(=O)c1ccccc1-2 [Compound 5719776] |  |
| 9.96 µM | 1.653 | 0.9562 |  |  | Cc1ccc(C)n1-c1ccc(C(=O)O)c(Cl)c1 [Compound 5956338] |  |
| 5.21 µM |  | 0.6773 |  |  | Cc1c(Cl)ccc2c1NC(C(=O)O)C1CC=CC21 (stereo not shown) [Compound 5659221] |  |
| 0.673 µM |  | 1.907 |  |  | Cc1ccc2oc3cc(NCCCN(C)C)c4c(=O)c5ccccc5c(=O)c4c3[nH]c2c1 [Compound 5468863] |  |
| 1.35 µM and 1.34 µM |  | 2.127 |  |  | COc1ccc(OC)c(C=NNC(=O)C2C=CN(CC(=O)c3ccccc3)C=C2)c1 [Compound 5483976] |  |
| 4.4 µM and 4.39 µM |  | 1.819 |  |  | C(=N\c1ccc(/N=C/c2ccccn2)cc1)/c1ccccc1 [Compound 5491977] |  |
| 6.17 µM |  | 1.432 |  |  | Cc1ccc(C(=O)c2coc3c2C(=O)C(=O)C(Cl)=C3Cl)cc1 [Compound 5169132] |  |
|  |  |  | 0.0828 µM | displaced FITC-TR3-r8 as expected | CC(=O)N[C@@H](Cc1ccccc1)C(=O)N[C@@H](CO)C(=O)N[C@@H](CCCNC(=N)N)C(=O)N[C@@H](CO)C(=O)N[C@@H](CC(C)C)C(=O)N[C@@H](Cc1c[nH]cn1)C(=O)N[C@@H](CO)C(=O)N[C@@H](CC(C)C)C(=O)N[C@@H](CC(C)C)C(=O)NCC(=O)NCCCCCC(=O)N[C@H](CCCNC(=N)N)C(=O)N[C@H](CCCNC(=N)N)C(=O)N[C@H](CCCNC(=N)N)C(=O)N[C@H](CCCNC(=N)N)C(=O)N[C@H](CCCNC(=N)N)C(=O)N[C@H](CCCNC(=N)N)C(=O)N[C@H](CCCNC(=N)N)C(=O)N[C@H](CCCNC(=N)N)C(N)=O [TR3-r8, reference compound] (Ac-FSRSLHSLLG[Ahx][dR][dR][dR][dR][dR][dR][dR][dR]-NH2) | effectively competed for binding |
| 5.41 µM |  | 1.735 |  |  | O=C(O)c1cccc2c1NC(c1ccc([N+](=O)[O-])cc1)C1CC=CC21 (stereo not shown) [Compound 5585430] |  |
| 0.621 µM |  | 2.868 |  |  | Cc1ccc(C)n1-c1ccccc1C(=O)O [Compound 5959185] |  |
| 20.4 µM |  | 2.167 |  |  | CN(C)c1ccc(NC(=O)/C=C\C(=O)O)cc1 [Compound 5374579] |  |
| 25.2 µM and 23.8 µM | 1.575 | 0.9192 |  |  | OC1=c2ccccc2=C(O)C12N=Nc1nnc(O)n1N2 [Compound 5627952] |  |
| 9.64 µM |  | 0.6738 |  |  | O=C(O)c1cccc(-c2ccc(/C=N/Nc3ccc([N+](=O)[O-])cn3)o2)c1 [Compound 5908920] |  |
| 2.57 µM and 2.67 µM |  | 2.809 |  |  | O=C(O)c1cccc2c1NC(c1cccc(Cl)c1Cl)C1CC=CC21 (stereo not shown) [Compound 6048905] |  |
